Several values for one entry are separate records, joined by “and”; a condition that tells them apart may be missing. Identical values can stand only once.
Columns and labels:
PAMPA permeability assay = assay type: in vitro ADME; settings: for Papp: read-out: Cell Permeability Log Papp (converted)
Description: (§3) Permeability was evaluated with a parallel artificial membrane permeability (PAMPA) assay using an artificially generated lipid-infused membrane.

[1] = Kinetic solubility by nephelometry; assay type: physicochemical; settings: aqueous buffer, kinetic from dmso stock; pH 7, nephelometry
Description: as §3

[2] = system: VERO: African green monkey kidney cell line; test: Cytotoxicity in normal mammalian cells (VERO); assay type: cell-based; settings: Chlorocebus sabaeus, 24 h, 0.01-100 μM, read-out: IC50 of compounds in various normal mammalian cells
CYP450 3A4 = CYP450 3A4 (Homo sapiens, UniProt P08684); test: CYP450 enzyme inhibition, 3A4
[3] = In vitro human plasma stability; assay type: in vitro ADME; settings: for Half-life predicted from in vitro plasma stability: human plasma
Description: as §3

CYP1A2 = biological target: T1, CYP1A2 (Homo sapiens, UniProt P05177); test: biochemical
T1 sequence (P05177 1-516): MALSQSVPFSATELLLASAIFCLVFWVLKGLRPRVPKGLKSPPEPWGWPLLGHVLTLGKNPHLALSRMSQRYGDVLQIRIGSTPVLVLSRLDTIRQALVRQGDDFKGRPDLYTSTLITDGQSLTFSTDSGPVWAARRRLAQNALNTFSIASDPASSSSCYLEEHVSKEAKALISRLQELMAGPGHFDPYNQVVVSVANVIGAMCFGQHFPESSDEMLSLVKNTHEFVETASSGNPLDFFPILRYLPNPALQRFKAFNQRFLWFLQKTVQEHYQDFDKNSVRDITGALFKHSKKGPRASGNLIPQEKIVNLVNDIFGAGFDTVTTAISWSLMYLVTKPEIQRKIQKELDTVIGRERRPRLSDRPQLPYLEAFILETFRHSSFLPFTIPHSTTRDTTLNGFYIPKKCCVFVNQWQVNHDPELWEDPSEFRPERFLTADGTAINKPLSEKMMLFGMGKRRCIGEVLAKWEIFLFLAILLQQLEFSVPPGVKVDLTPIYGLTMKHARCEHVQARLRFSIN

[4] = Liver microsomal phase I stability assay (mouse); assay type: in vitro ADME; settings: mouse liver microsomes
[5] = system: NIH 3T3: mouse embryonic fibroblast cell line; test: Cytotoxicity in normal mammalian cells (NIH 3T3); assay type: cell-based; settings: NIH3T3, 24 h, 0.01-100 μM, read-out: IC50 of compounds in various normal mammalian cells
[6] = system: HFL-1: human embryonic lung cell line; test: Cytotoxicity in normal mammalian cells (HFL-1); assay type: cell-based; settings: HFL1, HFL-1, 24 h, 0.01-100 μM, read-out: IC50 of compounds in various normal mammalian cells
[7] = system: CHO-K1: Chinese hamster ovary cell line; test: Cytotoxicity in normal mammalian cells (CHO-K1); assay type: cell-based; settings: Cricetulus griseus; CHO-K1, 24 h, 0.01-100 μM; read-out: IC50 of compounds in various normal mammalian cells
normal mammalian cells = test: Cytotoxicity, range over the normal mammalian cell panel; assay type: cell-based; settings: HFL-1, L929, NIH3T3, CHO-K1, VERO; 24 h; read-out: IC50 values, range over the normal cell lines
[8] = Single-dose IV toxicity in ICR mice; assay type: in vivo, mouse; settings: male, mouse, in vivo, not achieved by the maximum dose
Text: (§1) Male Sprague–Dawley rats (7-week-old) and male Institute of Cancer Research (ICR) mice (5-week-old) were purchased from Orient Bio (Seongnam, Korea) and Samtako Bio (Osan, Korea), respectively. The experimental animals were housed under conventional conditions and fasted overnight before surgery for catheterization. All procedures for animal experiments were in accordance with the guidelines by the Ewha Woman’s University Institutional Animal Care and Use Committee (IACUC, 15-049 and 16-062), Korea.
(§2) For single-dose toxicity study of each drug, ICR mice were divided into 6 groups of control (0.9% normal saline), vehicle, and four dosages of each inhibitor (n = 4 mice per group). Both inhibitors dissolved in the same solvent system as the pharmacokinetic study were administered to the mice by caudal vein injection at doses of 2.5, 7.5, 15 and 30 mg/kg. After a single administration, all mice were observed daily for general conditions including behavior, hair, eyes, and nose. In addition, body weight was measured on days 0, 3, 7, and 14 following IV administration.

ICR mice = test: Single-dose IV toxicity in ICR mice; assay type: in vivo, mouse; settings: 14 days, n = 4
Text: as §1, §2

[9] = Liver microsomal phase I stability assay (human); assay type: in vitro ADME; settings: human liver microsomes
[10] = system: L929: NCTC clone 929, mouse fibroblast cell line; test: Cytotoxicity in normal mammalian cells (L929); assay type: cell-based; settings: L929, 24 h, 0.01-100 μM, read-out: IC50 of compounds in various normal mammalian cells
[11] = system: HSP27 recombinant protein; test: HSP27 cross-linking with recombinant protein (Western blot); assay type: biochemical; settings: 10 μM, 3 h
Description: For polyacrylamide gel electrophoresis (PAGE) and Western blot (WB) analysis, cells were lysed with radioimmunoprecipitation assay (RIPA) buffer (50 mM Tris-HCl [pH 7.5], 150 mM NaCl, 1% NP-40, 0.1% sodium dodecyl sulfate (SDS), and 1% sodium deoxycholate) supplemented with 1 mM Na3VO4, 1 mM dithiothreitol (DTT), 1 mM phenyl-methyl-sulfonyl fluoride (PMSF), and protease inhibitor cocktail (Calbiochem). The samples were boiled for 5 min, and equal amounts of protein were analyzed by SDS-PAGE. […]
Figure S3. […] (A) HSP25 WT protein was pretreated with NAC (N-acetyl-L-cysteine) at 20 mM for 30 min and then treated with J2 or NA49 at 10 μM. After 3 h, the dimerization of proteins was altered. ( B) NCI-H460 cells were tr eated with J2 or NA49 (0, 1, 5, 10 and 20 μM) for 24 h, and cell lysates were detected by Western blot analysis. […]

hERG K+ channel = hERG K+ channel binding assay (fluorescence polarization, red fluorescent tracer); settings: human, probe red fluorescent hERG channel ligand tracer; concentration treated 10 μM
Description: To perform the Ames test of J2 and NA49, the number of revertant colonies was counted on each compound-treated plate at the maximum concentration at which the compound was soluble and nontoxic to the S. typhimurium tester strains (Supplementary Material S1). The ratio of the number of revertant colonies in the treated plate to colonies in the vehicle plate. […] For the hERG K^+ channel binding assay of J2 and NA49, the inhibitory activity against the hERG K^+ channel and its ligand was measured using a red fluorescent hERG channel ligand tracer. The final activity was assessed as a decrease in the degree of fluorescence polarization. […]
For hERG K+ channel binding […]
assay, measuring the inhibitory activity against the hERG K+ channel and its ligand using red fluorescent hERG channel ligand tracer. Final activity was assessed by the decrease in fluorescence polarization degree.

Chain of CYP450 3A4 (P08684 whole entry): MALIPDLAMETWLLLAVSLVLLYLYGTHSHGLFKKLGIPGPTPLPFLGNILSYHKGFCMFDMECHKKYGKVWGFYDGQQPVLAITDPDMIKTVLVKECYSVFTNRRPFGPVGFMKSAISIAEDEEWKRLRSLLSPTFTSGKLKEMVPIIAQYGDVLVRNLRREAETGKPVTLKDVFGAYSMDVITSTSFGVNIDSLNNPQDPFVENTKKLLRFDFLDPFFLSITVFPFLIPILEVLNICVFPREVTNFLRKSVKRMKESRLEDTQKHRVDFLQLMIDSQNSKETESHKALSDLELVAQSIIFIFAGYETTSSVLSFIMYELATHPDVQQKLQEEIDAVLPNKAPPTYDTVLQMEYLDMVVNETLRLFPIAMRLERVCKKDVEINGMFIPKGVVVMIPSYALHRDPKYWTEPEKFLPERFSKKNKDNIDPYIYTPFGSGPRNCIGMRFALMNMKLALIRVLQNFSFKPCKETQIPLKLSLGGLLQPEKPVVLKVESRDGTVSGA

| Compound | Cell permeability, rating (PAMPA permeability assay) | Papp (PAMPA permeability assay) [×10⁻⁶ cm/s] | solubility kinetic [1] | IC50 [2] [µM] | IC50 (CYP450 3A4) [µM] | Half-life predicted from in vitro plasma stability [3] | In vitro Human Plasma Stability at 37 °C (% of remaining after 1 h) ([3]; treated with 0.5 μg/mL) | In vitro Human Plasma Stability at 37 °C (% of remaining after 1 h) ([3]; treated with 5 μg/mL) | IC50 (CYP1A2) [µM] | In vitro Metabolic Stability (% of remaining after 30 min) [4] [%] | IC50 [5] [µM] | IC50 [6] [µM] | IC50 [7] [µM] | IC50 (normal mammalian cells) [µM] | LD50 at 14 days [8] [mg/kg] | Survival Rate (%) (ICR mice; 2.5 mg/kg) | Survival Rate (%) (ICR mice; 7.5 mg/kg) | Survival Rate (%) (ICR mice; 15 mg/kg) | Survival Rate (%) (ICR mice; 30 mg/kg) | In vitro Metabolic Stability (% of remaining after 30 min) [9] [%] | also measured |
| --- | --- | --- | --- | --- | --- | --- | --- | --- | --- | --- | --- | --- | --- | --- | --- | --- | --- | --- | --- | --- | --- |
| Cc1cc(=O)c2c(O)cc(OCC3CS3)cc2o1 (stereo not shown) [J2] | low | 12.6 | 73.2 µM and 19.5 µg/mL | 91.8 | > 50 | about 3 h | 76.2% and 76.2 ± 0.72% | 82.7% and 82.7 ± 0.73% | 0.1 | 6.2 ± 2.55 | > 100 | > 100 | > 100 | ≥ 91.8 | > 30 | 100 | 100 | 100 | 100 | 47.8 ± 4.50 | IC50 [10]: > 100 µM; HSP27 cross-linking activity (altered dimerization) [11]: Altered dimerization of HSP27; inhibition at 10 μM (hERG K+ channel): 8.7 ± 2.22% |
| COc1ccc(-c2coc3cc(OCC4CS4)ccc3c2=O)c(OC)c1 (stereo not shown) [NA49] | moderate | 32.4 | 90.2 µM and 33.4 µg/mL | 83.6 | > 50 | > 6 h | 146.6% and 146.6 ± 0.01% | 101.4% and 101.4 ± 0.13% | > 50 | 2.4 ± 0.95 | 96.5 | 94.5 | 90.4 | 83.6 to 96.5 | > 30 | 100 | 100 | 100 | 75 | 24.9 ± 0.77 | IC50 [10]: 91.9 µM; HSP27 cross-linking activity (altered dimerization) [11]: stronger cross-linking activity than J2; inhibition at 10 μM (hERG K+ channel): 39 ± 3.9% |
